This passage reports DC50 and remaining activity results from patent publication US12227490B2, “Cereblon binding compounds, compositions thereof, and methods of treatment therewith” (Celgene Corporation, priority 2020, dated 2025).

For this test, the target named is T1, AR (androgen receptor) protein in VCaP cells (Homo sapiens, UniProt P10275).
T1 construct: endogenous in cells; host or cells: VCaP cells
T1 sequence (P10275 1-920): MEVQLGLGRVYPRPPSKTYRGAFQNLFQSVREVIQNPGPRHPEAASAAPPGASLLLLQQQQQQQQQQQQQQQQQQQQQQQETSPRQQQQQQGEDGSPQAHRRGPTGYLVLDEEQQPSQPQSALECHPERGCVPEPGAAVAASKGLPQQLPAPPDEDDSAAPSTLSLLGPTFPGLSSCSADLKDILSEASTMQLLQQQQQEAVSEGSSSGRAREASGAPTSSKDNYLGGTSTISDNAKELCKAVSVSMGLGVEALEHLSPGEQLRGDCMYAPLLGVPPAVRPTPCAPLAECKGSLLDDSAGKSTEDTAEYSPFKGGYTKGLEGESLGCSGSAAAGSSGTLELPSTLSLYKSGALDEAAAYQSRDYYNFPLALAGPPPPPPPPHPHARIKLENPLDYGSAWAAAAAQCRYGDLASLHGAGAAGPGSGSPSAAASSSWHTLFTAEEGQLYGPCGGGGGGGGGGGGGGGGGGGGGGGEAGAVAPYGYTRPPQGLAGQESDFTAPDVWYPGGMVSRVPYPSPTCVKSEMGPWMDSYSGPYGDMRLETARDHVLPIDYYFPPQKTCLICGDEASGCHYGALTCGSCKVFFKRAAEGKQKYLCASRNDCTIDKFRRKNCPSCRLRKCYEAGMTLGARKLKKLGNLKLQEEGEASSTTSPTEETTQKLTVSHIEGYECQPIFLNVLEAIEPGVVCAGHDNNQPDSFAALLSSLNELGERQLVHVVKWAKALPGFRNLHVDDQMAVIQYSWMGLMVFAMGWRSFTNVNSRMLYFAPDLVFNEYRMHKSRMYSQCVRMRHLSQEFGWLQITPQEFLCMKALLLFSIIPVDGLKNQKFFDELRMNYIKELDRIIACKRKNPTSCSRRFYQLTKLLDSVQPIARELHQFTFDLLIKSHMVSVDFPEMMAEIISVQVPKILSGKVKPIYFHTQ
Put plainly: VCAP AR Degradation Assay. It counts as cell-based. The conditions noted are these: 24 h, AR ELISA; for DC50: concentration of compound when AR level = 50% of DMSO control; for remaining activity at up to 5 µM: top concentration 5 μM, read-out: Y (lowest measured AR level normalized to DMSO control, AR degradation efficiency). The method, then: VCAP AR Degradation Assay. Test compounds were pre-dispensed into a Corning CellBind 96-well clear bottom plate (Cat #3300) using an acoustic dispenser to make a 10-point concentration series at 1:3 dilution for each compound. The final top concentration of each compound was 5 μM. DMSO at a final concentration of 0.1% was used as a control. VCaP cells cultured in DMEM with 8% fetal bovine serum (FBS) were seeded at 50K cells per well in a 200 μL volume into the compound plate and incubated at 37° C. in a CO2 incubator for 24 h. The medium was carefully removed from the cells and the plate was placed on ice. One hundred μL of ice-cold 1× cell lysis buffer from Cell Signaling Technologies (Cat #9803) was added to each well of the cells and the plate was incubated at 4° C. on a shaker for 1 h. Fifteen μL of cell lysate was used for AR ELISA detection using a PathScan Total Sandwich AR ELISA kit (Cell Signaling Technology, Cat #12580). AR levels in compound-treated wells were normalized to that of DMSO control and expressed as percent of control (PoC) (y). A Four Parameter Logistic Model (Sigmoidal Dose-Response Model) was used to determine the compound's DC50, and EC50, using the following equation: y=(A+((B−A)/(1+((C/x)^D)))) • A=YMin (lowest AR level normalized to DMSO control in response to compound treatment, as determined by curve fit) • B=YMax (maximum AR level as determined by curve fit) • C=EC50 • D=Hill Slope • x=compound concentration • EC50=the concentration of compound when y=(YMax−YMin)/2 • DC50=the concentration of the compound when y=50% of DMSO control (50% AR degradation) • y=AR protein level normalized to DMSO control
The lowest measured AR level normalized to DMSO control in response to compound treatment, termed Y value, was used to characterize the compound-mediated AR degradation efficiency.
Background: In an ELISA, binding on a coated surface is turned into a signal by an enzyme label.

Structures can show the parent of a compound that is named as a salt.

A word on the DC50: it is the midpoint of the concentration-degradation curve. A high value points to a less potent degrader. Turning to `C[C@@H]1C[C@H](OCC[C@H]2CC[C@H](N3C(=S)N(c4cnc(C#N)c(C(F)(F)F)c4)C(=O)C3(C)C)CC2)C[C@H](C)N1CC(=O)Nc1cccc2c(C3CCC(=O)NC3=O)nn(C)c12` (stereo partly drawn) [Cmpd 25, 2-((2R,4r,6S)-4-(2-((trans)-4-(3-(6-Cyano-5-(trifluoromethyl)pyridin-3-yl)-5,5-dimethyl-4-oxo-2-thioxoimidazolidin-1-yl)cyclohexyl)ethoxy)-2,6-dimethylpiperidin-1-yl)-N-(3-(2,6-dioxopiperidin-3-yl)-1-methyl-1H-indazol-7-yl)acetamide], the DC50 was in the range of 2 to 5 nM and the remaining activity at up to 5 µM was 0 to 25%.
In the same order, the values of `C[C@@H]1CN(CCO[C@H]2CC[C@H](N3C(=S)N(c4cnc(C#N)c(C(F)(F)F)c4)C(=O)C3(C)C)CC2)C[C@H](C)N1CC(=O)Nc1cccc2c(C3CCC(=O)NC3=O)nn(C)c12` (stereo partly drawn) [Cmpd 4, 2-((2R,6S)-4-(2-((trans-4-(3-(6-Cyano-5-(trifluoromethyl)pyridin-3-yl)-5,5-dimethyl-4-oxo-2-thioxoimidazolidin-1-yl)cyclohexyl)oxy)ethyl)-2,6-dimethylpiperazin-1-yl)-N-(3-(2,6-dioxopiperidin-3-yl)-1-methyl-1H-indazol-7-yl)acetamide hydrochloride] are below 2 nM and 25 to 30%.
In the same order, the values of `C[C@@H]1CN(CCCO[C@H]2CC[C@H](N3C(=S)N(c4cnc(C#N)c(C(F)(F)F)c4)C(=O)C3(C)C)CC2)C[C@H](C)N1CC(=O)Nc1cccc2c(C3CCC(=O)NC3=O)nn(C)c12` (stereo partly drawn) [Cmpd 7, 2-((2R,6S)-4-(3-((trans-4-(3-(6-Cyano-5-(trifluoromethyl)pyridin-3-yl)-5,5-dimethyl-4-oxo-2-thioxoimidazolidin-1-yl)cyclohexyl)oxy)propyl)-2,6-dimethylpiperazin-1-yl)-N-(3-(2,6-dioxopiperidin-3-yl)-1-methyl-1H-indazol-7-yl)acetamide hydrochloride] are below 2 nM and 0 to 25%.
In the same order, the values of `Cn1nc(C2CCC(=O)NC2=O)c2cccc(NC(=O)CN3CCN(CCC[C@H]4CC[C@H](N5C(=S)N(c6cnc(C#N)c(C(F)(F)F)c6)C(=O)C5(C)C)CC4)C[C@@H]3C(F)(F)F)c21` (stereo partly drawn) [Cmpd 17, 2-((R)-4-(3-((trans)-4-(3-(6-Cyano-5-(trifluoromethyl)pyridin-3-yl)-5,5-dimethyl-4-oxo-2-thioxoimidazolidin-1-yl)cyclohexyl)propyl)-2-(trifluoromethyl)piperazin-1-yl)-N-(3-(2,6-dioxopiperidin-3-yl)-1-methyl-1H-indazol-7-yl)acetamide] are 2 to 5 nM and 0 to 25%.
As for `C[C@@H]1CN(CCC[C@H]2CC[C@H](N3C(=S)N(c4cnc(C#N)c(Cl)c4)C(=O)C3(C)C)CC2)C[C@H](C)N1CC(=O)Nc1cccc2c(C3CCC(=O)NC3=O)nn(C)c12` (stereo partly drawn) [Cmpd 10, 2-((2R,6S)-4-(3-(trans-4-(3-(5-Chloro-6-cyanopyridin-3-yl)-5,5-dimethyl-4-oxo-2-thioxoimidazolidin-1-yl)cyclohexyl)propyl)-2,6-dimethylpiperazin-1-yl)-N-(3-(2,6-dioxopiperidin-3-yl)-1-methyl-1H-indazol-7-yl)acetamide], the DC50 fell in the range of 2 to 5 nM and the remaining activity at up to 5 µM is 30 to 50%.
Turning to `Cn1nc(C2CCC(=O)NC2=O)c2cccc(NC(=O)CN3CCN(CCCO[C@H]4CC[C@H](N5C(=S)N(c6cnc(C#N)c(C(F)(F)F)c6)C(=O)C5(C)C)CC4)C[C@@H]3C(F)(F)F)c21` (stereo partly drawn) [Cmpd 20, 2-((R)-4-(3-(((trans)-4-(3-(6-Cyano-5-(trifluoromethyl)pyridin-3-yl)-5,5-dimethyl-4-oxo-2-thioxoimidazolidin-1-yl)cyclohexyl)oxy)propyl)-2-(trifluoromethyl)piperazin-1-yl)-N-(3-(2,6-dioxopiperidin-3-yl)-1-methyl-1H-indazol-7-yl)acetamide], the DC50 fell in the range of 2 to 5 nM and the remaining activity at up to 5 µM fell in the range of 0 to 25%.
For the molecule `C[C@@H]1C[C@H](OCC[C@H]2CC[C@H](N3C(=S)N(c4ccc(C#N)c(C(F)(F)F)c4)C(=O)C3(C)C)CC2)C[C@H](C)N1CC(=O)Nc1cccc2c(C3CCC(=O)NC3=O)nn(C)c12` (stereo partly drawn) [Cmpd 26, 2-((2R,4r,6S)-4-(2-((trans)-4-(3-(4-Cyano-3-(trifluoromethyl)phenyl)-5,5-dimethyl-4-oxo-2-thioxoimidazolidin-1-yl)cyclohexyl)ethoxy)-2,6-dimethylpiperidin-1-yl)-N-(3-(2,6-dioxopiperidin-3-yl)-1-methyl-1H-indazol-7-yl)acetamide], the DC50 is 5 to 20 nM and the remaining activity at up to 5 µM was in the range of 0 to 25%.
As to `Cn1nc(C2CCC(=O)NC2=O)c2cccc(NC(=O)CN3CCN(CCO[C@H]4CC[C@H](N5C(=S)N(c6cnc(C#N)c(C(F)(F)F)c6)C(=O)C5(C)C)CC4)C[C@@H]3C(F)(F)F)c21` (stereo partly drawn) [Cmpd 22, 2-((R)-4-(2-(((trans)-4-(3-(6-Cyano-5-(trifluoromethyl)pyridin-3-yl)-5,5-dimethyl-4-oxo-2-thioxoimidazolidin-1-yl)cyclohexyl)oxy)ethyl)-2-(trifluoromethyl)piperazin-1-yl)-N-(3-(2,6-dioxopiperidin-3-yl)-1-methyl-1H-indazol-7-yl)acetamide], the DC50 was below 2 nM and the remaining activity at up to 5 µM was in the range of 0 to 25%.
In the same order, the values of `C[C@@H]1CN(CCO[C@H]2CC[C@H](N3C(=S)N(c4ccc(C#N)c(C(F)(F)F)c4)C(=O)C3(C)C)CC2)C[C@H](C)N1CC(=O)Nc1cccc2c(C3CCC(=O)NC3=O)nn(C)c12` (stereo partly drawn) [Cmpd 1, 2-((2S,6R)-4-(2-((trans-4-(3-(4-Cyano-3-(trifluoromethyl)phenyl)-5,5-dimethyl-4-oxo-2-thioxoimidazolidin-1-yl)cyclohexyl)oxy)ethyl)-2,6-dimethylpiperazin-1-yl)-N-(3-(2,6-dioxopiperidin-3-yl)-1-methyl-1H-indazol-7-yl)acetamide hydrochloride] are below 2 nM and 0 to 25%.
On to `C[C@@H]1CN(CCC[C@H]2CC[C@H](N3C(=S)N(c4ccc(C#N)c(C(F)(F)F)c4)C(=O)C3(C)C)CC2)C[C@H](C)N1CC(=O)Nc1cccc2c(C3CCC(=O)NC3=O)nn(C)c12` (stereo partly drawn) [Cmpd 2, 2-((2R,6S)-4-(3-(trans-4-(3-(4-cyano-3-(trifluoromethyl)phenyl)-5,5-dimethyl-4-oxo-2-thioxoimidazolidin-1-yl)cyclohexyl)propyl)-2,6-dimethylpiperazin-1-yl)-N-(3-(2,6-dioxopiperidin-3-yl)-1-methyl-1H-indazol-7-yl)acetamide hydrochloride], for which the DC50 was in the range of 2 to 5 nM and the remaining activity at up to 5 µM was 30 to 50%.
In the case of `C[C@@H]1CN(CCCC[C@H]2CC[C@H](N3C(=S)N(c4ccc(C#N)c(C(F)(F)F)c4)C(=O)C3(C)C)CC2)C[C@H](C)N1CC(=O)Nc1cccc2c(C3CCC(=O)NC3=O)nn(C)c12` (stereo partly drawn) [Cmpd 19, 2-((2S,6R)-4-(4-((trans)-4-(3-(4-Cyano-3-(trifluoromethyl)phenyl)-5,5-dimethyl-4-oxo-2-thioxoimidazolidin-1-yl)cyclohexyl)butyl)-2,6-dimethylpiperazin-1-yl)-N-(3-(2,6-dioxopiperidin-3-yl)-1-methyl-1H-indazol-7-yl)acetamide], the DC50 was in the range of 2 to 5 nM and the remaining activity at up to 5 µM lay within 0 to 25%.
